Source: patent US8853273B2, “Medicinal agent for prevention and/or treatment of hepatocellular carcinoma” (Kowa Co., Ltd., priority 2010, dated 2014)

Tests used:
[1] = system: recurrence of hepatocellular carcinoma; test: Clinical test of recurrence of hepatocellular carcinoma after radical treatment in HCV-positive subjects (dynamic CT every 12 weeks, log-rank test); format: in vivo, human; conditions: for 50% Recurrence free interval / 75% Recurrence free interval: peroral, 96 weeks, in combination with branched-chain amino acid preparation
Method: Peretinoin produced through a known method was used as an acyclic retinoid. A commercial preparation containing isoleucine, leucine, and valine in combination was used as a branched-chain amino acid.
Forty-six subjects (age: 49 to 80) were tested. […] As a preparation containing a branched-chain amino acid, Aminoleban (registered trademark) EN combination powder or Livact (registered trademark) combination granules were administered in a specific amount during the test period. The daily dose of Aminoleban was 150 g (the daily dose including L-isoleucine (5.7675 g), L-leucine (6.111 g), and L-valine (4.806 g)), and that of Livact was 12.45 g (the daily dose including L-isoleucine (2.856 g), L-leucine (5.712 g), and L-valine (3.432 g)). As an acyclic retinoid, peretionin, was administered to the subjects in combination with the branched-chain amino acid. The subjects were divided into the following groups:
1: peretinoin 600 mg (daily dose, the same applies hereinafter) combination group: 18 subjects (male: 11, female: 7),
2: peretinoin 300 mg combination group: 15 subjects (male: 9, female: 6), and
3: branched-chain amino acid sole administration group: 13 subjects (male: 8, female: 5).
The daily dose of peretinoin was divided into two portions. On each day during 96 weeks after start of the test, peretinoin was perorally administered after meal.
Radical curing and recurrence of hepatocellular carcinoma were confirmed through dynamic CT measured every 12 weeks after the start of the test. The combinatory effect on cumulative recurrence free rate was evaluated through the log-rank test.

[2] = system: recurrence of hepatocellular carcinoma; conditions: clinical study, cited from earlier work
liver cancer cells = conditions: cited from earlier work
[3] = peretinoin 300 mg daily, 15 HCV-positive subjects
[4] = peretinoin 600 mg daily, 18 HCV-positive subjects

SMILES: CC(C)=CCC/C(C)=C/CC/C(C)=C/C=C/C(C)=C/C(=O)O [peretinoin, (2E,4E,6E,10E)-3,7,11,15-tetramethylhexadeca-2,4,6,10,14-pentaenoic acid]
- 50% Recurrence free interval [1, 3]: >730 days
- 75% Recurrence free interval [1, 3]: 415 days
- extension of 75% recurrence free interval compared with the sole branched-chain amino acid administration group ([1]; peretinoin 300 mg in combination with branched-chain amino acid): 227 days
- cumulative recurrence free rate (FIG. 1) ([1]; peretinoin 600 mg and 300 mg combination groups with branched-chain amino acid): remarkable improvement
- cumulative recurrence free rate compared with the sole branched-chain amino acid administration group ([1]; peretinoin 600 mg combination group, Log-rank test): significantly improved
- 50% Recurrence free interval [1, 4]: >730 days
- 75% Recurrence free interval [1, 4]: 705 days
- extension of 75% recurrence free interval compared with the sole branched-chain amino acid administration group ([1]; peretinoin 600 mg in combination with branched-chain amino acid): 517 days
- extension of 50% recurrence free interval compared with the sole branched-chain amino acid administration group ([1]; peretinoin and branched-chain amino acid combination groups (600 mg and 300 mg)): more than double
- hepatocellular carcinoma recurrence rate ([1]; peretinoin in combination with branched-chain amino acid): reduce
- liver disorders / adverse side effects [2]: substantially no liver disorders
- recurrence of hepatocellular carcinoma after radical treatment ([2]; long-term administration for one year): significantly inhibited

SMILES: CC(C)=CCC/C(C)=C/CC/C(C)=C/CC/C(C)=C/C(=O)O [geranylgeranoic acid]
- apoptosis of liver cancer cells (liver cancer cells): induce apoptosis
